Reference: patent US5527809A, “Substituted imidazo[4,5-b]pyridines and benzimidazoles” (Bayer Aktiengesellschaft, priority 1993, dated 1996)

Columns and labels:
smooth muscle cells = assay: Inhibition of the proliferation of smooth muscle cells (3H-thymidine incorporation); format: cell-based; conditions: rat aorta smooth muscle cells; thymidine incorporation produced by 10% FCS; read-out: IC50 (half-maximum inhibition of thymidine incorporation)
Description: Investigation of the inhibition of the proliferation of smooth muscle cells by the compounds according to the invention
To determine the antiproliferation action of the compounds, smooth muscle cells are used which are obtained from aortas of rats by the media explant technique [R. Ross, J. Cell. Biol. 50, 172, 1971]. The cells are inoculated in suitable culture dishes, as a rule 96-hole plates, and cultured in 5% CO2 at 37° C. for 2-3 days in medium 199 containing 7.5% FCS and 7.5% NCS, 2 mM L-glutamine and 15 mM HEPES, pH 7.4. The cells are then synchronized by withdrawal of serum for 2-3 days and then stimulated into growth with serum or other factors. Test compounds are simultaneously added. After 16-20 hours, 1 μCi of ^3 H-thymidine is added and after a further 4 hours the incorporation of this substance into the TCA-precipitatable DNA of the cells is determined. To determine the IC50 values, the active compound concentration is calculated which, on sequential dilution of the active compound, causes half-maximum inhibition of the thymidine incorporation produced by 10% FCS.

angiotensin II receptor = molecular target: T1, angiotensin II receptor (Bos taurus, UniProt P25104); assay: Interaction with the angiotensin II receptor in membrane fractions of the adrenal gland cortex (bovine), 3H-angiotensin II binding; conditions: bovine adrenal gland cortex membranes; 3H-angiotensin II 3-5 nM; 60 min, room temperature; read-out: IC50 (50% inhibition of the specific binding of the radioligand)
T1 construct: partially purified membrane fractions of bovine AGC; from tissue; host or cells: bovine adrenal gland cortex, partially purified membrane fractions
T1 sequence (P25104 1-359): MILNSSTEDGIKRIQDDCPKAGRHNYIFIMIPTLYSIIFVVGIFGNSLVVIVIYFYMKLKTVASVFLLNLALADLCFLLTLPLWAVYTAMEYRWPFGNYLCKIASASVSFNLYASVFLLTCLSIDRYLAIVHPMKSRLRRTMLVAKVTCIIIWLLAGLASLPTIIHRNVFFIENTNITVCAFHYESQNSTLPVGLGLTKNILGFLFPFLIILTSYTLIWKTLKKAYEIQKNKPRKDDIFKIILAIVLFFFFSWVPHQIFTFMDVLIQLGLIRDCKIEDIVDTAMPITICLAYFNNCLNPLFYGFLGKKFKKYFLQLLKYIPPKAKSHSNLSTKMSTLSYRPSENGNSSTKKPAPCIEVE
Source text: Interaction of the compounds according to the invention with the angiotensin II receptor in membrane fractions of the adrenal gland cortex (bovine)
Bovine adrenal gland cortices (AGC), which have been freshly removed and carefully freed from medulla from capsule, are comminuted in sucrose solution (0.32M) with the aid of an Ultra-Turrax (Janke & Kunkel, Staufen i.B.) to give a coarse membrane homogenate and are partially purified in two centrifugation steps to give membrane fractions. The receptor binding investigations are carried out on partially purified membrane fractions of bovine AGC using radioactive angiotensin II in an assay volume of 0.25 ml, which specifically contains the partially purified membranes (50-80 μg), ^3 H-angiotensin II (3-5 nM), test buffer solution (50 mM Tris, pH 7.2), 5 mM MgCl2 and the substances to be investigated. After an incubation time of 60 min at room temperature, the unbound radioactivity of the samples is separated by means of moistened glass fibre filters (Whatman GF/C) and the bound radioactivity is measured […] in a scintillation cocktail after washing the protein with ice-cold buffer solution (50 mM Tris/HCl, pH 7.4, 5% PEG 6000). […]

[1] = tested on: isolated rabbit aorta (contraction induced by angiotensin II); assay: Inhibition of the contraction induced by agonists in isolated rabbit aorta rings (angiotensin II); conditions: Oryctolagus cuniculus, based on the 3rd = submaximal agonist concentration, read-out: IC50 (50% inhibition of agonist-induced contraction)
Description: Investigation of the inhibition of the contraction induced by agonists
Rabbits of either sex are stunned by a blow to the back of the head and exsanguinated, or in some cases anaesthetized with Nembutal (about 60-80 mg/kg i.v.) and sacrificed by opening the thorax. The thoracic aorta is removed, freed from adhering connective tissue, divided into ring segments 1.5 mm wide and individually transferred under an initial loading of about 3.5 g to 10 ml organ baths containing Krebs-Henseleit nutrient solution, which is temperature-controlled at 37° C. and aerated with 95% 02 / 5% CO2, of the following composition: 119 mmol/l NaCl; 2.5 mmol/l CaCl2 ×2H2 O; 1.2 mmol/l KH2 PO4; 10 mmol/l glucose; 4.8 mmol/l KCl; 1.4 mmol/l MgSO4 ×7 H2 O and 25 mmol/l NaHCO3.
The contractions are detected isometrically by Statham UC2 cells by means of bridge amplifiers (ifd Mulheim or DSM Aalen) and digitalized and assessed by means of A/D converters (System 570, Keithley Munich). Agonist dose response curves (DRC) are carried out hourly. With each DRC, 3 or 4 individual concentrations are applied to the baths at a 4 min interval. After the end of the DRC and subsequent washing-out cycles (16 times in each case about 5 sec/min with the abovementioned nutrient solution), a 28-minute rest or incubation phase follows, during which the contractions as a rule reach the starting value again. […]

| SMILES | IC50 (smooth muscle cells) | IC50 (angiotensin II receptor) | IC50 [1] |
| --- | --- | --- | --- |
| O=C(N[C@H](CO)c1ccccc1)C(c1ccc(Cn2c(-c3ccccc3)nc3cccnc32)cc1)C1CCCCCC1 (some centres unmarked) [Example 14] | 120 nM |  |  |
| Cc1cc(C)c2nc(C3CC3)n(Cc3ccc(C(C(=O)O)C(C)C)cc3)c2n1 (centres unmarked) [Example 2] |  | 210 nM |  |
| Cc1ccnc2c1nc(-c1ccccc1)n2Cc1ccc(C(C(=O)NC(C(N)=O)c2ccccc2)C2CCCCCC2)cc1 (centres unmarked) [Example 23] | 43 nM |  |  |
| Cc1ccc(S(=O)(=O)NC(=O)Cc2ccc(Cn3c(C4CC4)nc4c(C)cc(C)nc43)cc2)cc1 [Example 9] |  | 16 nM | 61 nM |
